Experimental data taken from patent US20210236580A1, “Methods and Compositions for Mitigating Symptoms of Acute Respiratory Distress Syndrome” (Sytheon Ltd, priority 2020, published 2021).

Assays:
[1] = test system: IL-8; experiment: IL-8 secretion in LPS-induced human bronchial epithelial cells (HBEpC), ELISA; format: cell-based; settings: 48 hrs
Source text: (§1) HBEpC provide an excellent model for all aspects of respiratory epithelial function and diseases, particularly those related to airway viral/bacterial infections, including tissue repair mechanisms, signaling changes and potential treatments relevant to lung injuries, mechanical and oxidative stress, inflammation, etc., including that arising from or associated with pulmonary diseases and smoking. In this study, the inflammatory cytokines IL-6 and IL-8 were induced through pretreatment of the HBEpC with lipopolysaccharide (Cat #L2630, Sigma, Saint Louis, Mo.). After 3 hours of treatment the test and control materials were added to the cultures which were then incubated at […] for 48 hrs. Thereafter the IL-8 and IL-6 levels of the test cultures were measured by ELISA.
(§2) Each experimental condition and control were assayed at least in six replicates and statistical significance assessed with paired Student test. In conducting the assay, total insoluble proteins were quantified to determine the effect of the test materials on cell proliferation according to the method described by Voigt (Voigt, W. Sulforhodamine B assay and chemosensitivity. Methods Mol Med. 2005; 110:39-48).

[2] = test system: IL-6; experiment: IL-6 secretion in LPS-induced human bronchial epithelial cells (HBEpC), ELISA; format: cell-based; settings: 48 hrs, 20 μM
Source text: as §1, §2

[3] = test system: IL-8; experiment: IL-8 release by urban dust-stimulated human keratinocytes (ELISA); format: cell-based; settings: keratinocytes + 100 ug/ml urban dust, 24 hours; 100 μM (39 μg/ml)
Experimental: (§3) Human Keratinocyte Cell Culture: Human adult epidermal keratinocytes were grown using EpiLife Media (60 μM calcium) supplemented with 0.2% v/v bovine pituitary extract, 1 μg/ml recombinant human insulin-like growth factor-I, 0.18 µg/ml hydrocortisone, 5 μg/ml bovine transferrin, 0.2 ng/ml human epidermal growth factor. The cells were cultured at 37 C and 5% CO2. When a sufficient number of cells had been grown, they were seeded into 24-well plates and grown until confluent. Once confluent the cells were cultured overnight in hydrocortisone free EpiLife Media.
(§4) Preparation of Urban Dust & treatment: Urban dust was obtained from Sigma Chemicals (Standard Reference Material 1649b) and prepared at 10 mg/ml in hydrocortisone free EpiLife media. The urban dust solution was then sonicated for 10 minutes on ice. The test material was prepared in hydrocortisone free media supplemented with 100 ug/ml urban dust. […] Finally, one set of cells was not exposed to urban dust and was used to establish a baseline for each cytokine. […]
(§5) A series of standards was prepared and 100 μl of each of these standards was dispensed into two wells (duplicates) in the ELISA well plate. […] Once a sufficient level of color development had occurred, 50 μl of stop solution […]) was added to each well and the plate was read at 460 nm.

[4] = test system: interferon gamma; experiment: IFN-γ in medium of LPS-exposed 3D ciliated airway tissues, sandwich ELISA; format: cell-based, human; settings: second value column of Table 6, 100 μg/ml
Experimental: (§6) The respective test materials were stored at room temperature and samples were solubilized in sterile water (LPS, TC, EMB) or DMSO (DEX) at 20 mg/ml, afterward all further dilutions were made in sterile distilled water. All test materials except LPS were assayed at 100 μg ml (LPS was added topically at 1 μg/ml on Day 2). Furthermore, TC and EMB were tested at 50 μg/ml and in two combinations: 50 μg/ml:50 μg/ml and 25 μg/ml:25 μg/ml. Samples were added to the feeder chamber medium contacting the basal side of the tissues on Day 1, then also topically on Day 2, together with LPS. All experimental conditions were tested in triplicates.
(§7) Twenty-four hours after pre-incubation with the test substances, the tissue cultures were exposed to 1 μg/ml endotoxin LPS and the incubation was continued for 48 additional hours. Following the incubation, the experiment tissue culture-conditioned medium was stored at −20° C. until further processing. Subsequently, IFN-α and IFN-γ were quantified in the tissue culture-conditioned medium by sandwich ELISA.

[5] = test system: IL-6; experiment: IL-6 in LPS-exposed 3D ciliated airway tissue, sandwich ELISA; format: cell-based, human; settings: 1 μg/ml LPS, 48 hours, 100 μg/ml
Experimental: Further dilutions were made in sterile distilled water (dH2O). […] After three hours of incubation with test materials, cells were exposed to endotoxin—1 μg/ml LPS (lipopolysaccharides from Escherichia coli O113:H10, Associates of Cape Cod, East Falmouth, Mass.) and the incubation continued for an additional 48 hours.
The tissue cultures were then evaluated for IL-6 which was quantified by Sandwich Elisa. All colorimetric measurements were performed using Molecular Devices microplate reader MAX190 and SoftMax3.1.2PRO software. Statistical significance was assessed with paired Student test. Deviations of ≥20% as compared to water control with p values below 0.05 were considered statistically significant.

[6] = test system: IL-6; experiment: IL-6 release by urban dust-stimulated human keratinocytes (ELISA); format: cell-based; settings: keratinocytes + 100 ug/ml urban dust, 24 hours; 100 μM (39 μg/ml)
Experimental: as §3, §4, §5

[7] = test system: interferon alpha; experiment: IFN-α in medium of LPS-exposed 3D ciliated airway tissues, sandwich ELISA; format: cell-based, human; settings: first value column of Table 6, 100 μg/ml
Experimental: as §6, §7

[8] = target: T1, IL-6R (Homo sapiens, UniProt P08887); settings: Covid-19 patients, after treatment; preliminary findings; cited from earlier work
T1 construct: host or cells: endogenous receptor in Covid-19 patients (in vivo)
T1 sequence (P08887 20-468): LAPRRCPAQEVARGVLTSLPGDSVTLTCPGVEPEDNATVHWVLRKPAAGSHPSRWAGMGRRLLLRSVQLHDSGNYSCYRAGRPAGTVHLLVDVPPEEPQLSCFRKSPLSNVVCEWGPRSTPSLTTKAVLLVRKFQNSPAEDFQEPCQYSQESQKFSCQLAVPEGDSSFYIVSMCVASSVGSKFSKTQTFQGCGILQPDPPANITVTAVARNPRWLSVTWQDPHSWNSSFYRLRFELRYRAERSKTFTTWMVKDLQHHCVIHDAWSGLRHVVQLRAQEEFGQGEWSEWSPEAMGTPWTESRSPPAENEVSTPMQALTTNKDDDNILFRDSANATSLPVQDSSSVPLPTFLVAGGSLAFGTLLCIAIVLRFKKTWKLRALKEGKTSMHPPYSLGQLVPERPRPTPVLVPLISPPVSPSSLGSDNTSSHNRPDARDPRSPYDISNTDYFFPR

Molecule | IL-8 (% control) ([1]; 20 μM) | IL-8 (% control) ([1]; 40 μM) | IL-6 (% control) [2] | IL-8 [3] | Interferon alpha [4] | IL-6 (% control) [5] | IL-6 [6] | Interferon alpha [7] | effect on fevers [8] | patients experiencing a reduced need for supplemental oxygen [8]
C[C@@H]1C[C@H]2[C@@H]3CCC4=CC(=O)C=C[C@]4(C)[C@@]3(F)[C@@H](O)C[C@]2(C)[C@@]1(O)C(=O)CO [Dexamethasone] | 98 % control | 91 % control | 77 % control | 86.9 ± 24.5 pg/mL | 20 pg/mL | 123 % control | 61.0 ± 13.9 pg/mL | 6 pg/mL |  | 
Actemra: humanized anti-IL-6R monoclonal antibody |  |  |  |  |  |  |  |  | rapidly reduced fevers | 75%
